pIC50: −log10 of the molar value.
Columns and labels:
P-388 = assay: Inhibition of cell growth by counting cells, P-388; type: cell-based, mouse; details: Mus musculus, P388, 72 h; three days of incubation; read-out: IC50 (molar) P-388
Outline: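 Mouse P-388 lymphoid neoplasm suspension cells seeded at 1×10^4 cells/well in EMEM 5% FCS containing graded sample concentrations, in duplicate alongside drug-free growth controls. Cells counted by Coulter counter; % growth vs untreated gives dose-response curves, IC50 = concentration producing 50% growth inhibition.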

HT-29 [1] = assay: Inhibition of cell growth by counting cells, HT-29; type: cell-based, human; details: Homo sapiens, HT-29, 72 h; three days of incubation; read-out: IC50 (molar) HT-29
Outline: (§1)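 Monolayer lines were plated at 1×10^4 cells per well with compound in medium containing 5% FCS. After a 3-day incubation at 37° C, crystal violet staining gave an approximate IC50, and cell counting of duplicate wells gave the dose-response IC50.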

A-549 [2] = assay: Inhibition of cell growth by counting cells, A-549; type: cell-based, human; details: Homo sapiens, A549, 72 h; three days of incubation; read-out: IC50 (molar) A-549
Outline: as §1

MEL-28 = assay: Inhibition of cell growth by counting cells, MEL-28; type: cell-based, human; details: Homo sapiens, SK-MEL-28, 72 h; three days of incubation; read-out: IC50 (molar) MEL-28
Outline: as §1

DU-145 = assay: Inhibition of cell growth by counting cells, DU-145; type: cell-based, human; details: Homo sapiens, DU-145, 72 h; three days of incubation; read-out: IC50 (molar) DU-145
Outline: as §1

HT-29 [3] = assay: Inhibition of cells growth by colorimetric assay (SRB), HT-29; type: cell-based; details: SRB, 48 hours exposure; for GI50 / LC50 (concentration for 50% cell killing): Homo sapiens, HT-29, 48 h; for HT-29 TGI / GI50: HT-29; for GI50: read-out: HT-29 GI50; for LC50 (concentration for 50% cell killing): read-out: HT-29 LC50, HT-29
Outline: (§2)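 Sulforhodamine B protein-stain readout (490 nm) after 48 h drug exposure, with GI, TGI and LC parameters calculated from triplicate means. Cells seeded at 5×10^3 per well, allowed 18 h drug-free attachment; dose range 10 to 10^−8 μg/ml, vehicle DMSO/EtOH/PBS (0.5:0.5:99).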

A-549 [4] = assay: Inhibition of cells growth by colorimetric assay (SRB), A-549; type: cell-based; details: SRB, 48 hours exposure; for GI50 / LC50 (concentration for 50% cell killing): Homo sapiens, A549, 48 h; for A-549 TGI / GI50: A-549; for GI50: read-out: A-549 GI50; for LC50 (concentration for 50% cell killing): read-out: A-549 LC50, A-549
Outline: as §2

Excerpt for Heart: (§3) Toxicity was asssessed by the methods reported in Toxicology in Vitro, 15 (2001) 571-577, J. Luber Narod et al.: “Evaluation of the use of in vitro methodolodies as tools for screening new compounds for potential in vivo toxicity”.
Excerpt for Kidney: as §3
Excerpt for Liver: as §3
Excerpt for Myelo: as §3
Excerpt for Skeletal: as §3

COc1cc2c(cc1OC(C)=O)CCN[C@]21CS[C@@H]2c3c(OC(C)=O)c(C)c4c(c3[C@H](COC1=O)N1C2[C@H]2c3c(cc(C)c(OC)c3O)C[C@@H]([C@@H]1O)N2C)OCO4 (some centres unmarked) [Compound 57]
Toxicity Data Kidney (Kidney): 3.35E-09 | Toxicity Data Myelo (Myelo): 1.85E-08 | pIC50 (P-388): 9.83 | pIC50 (HT-29 [1]): 9.83 | pIC50 (A-549 [2]): 9.83 | Toxicity Data Heart (Heart): 3.48E-09 | pIC50 (MEL-28): 9.83 | Toxicity Data Liver (Liver): 4.66E-09

CCCCCCCC(=O)Oc1cc2c(cc1OC)[C@@]1(CS[C@@H]3c4c(OC(C)=O)c(C)c5c(c4[C@H](COC1=O)N1C3[C@H]3c4c(cc(C)c(OC)c4O)C[C@@H]([C@@H]1O)N3C)OCO5)NCC2 (some centres unmarked) [Compound 59]
Toxicity Data Kidney (Kidney): 2.87E-08 | Toxicity Data Myelo (Myelo): 4.18E-08 | pIC50 (P-388): 9.95 | pIC50 (HT-29 [1]): 9.95 | Toxicity Data Skeletal (Skeletal): 1.46E-07 | pIC50 (A-549 [2]): 9.95 | Toxicity Data Heart (Heart): 8.14E-08 | pIC50 (MEL-28): 9.95 | Toxicity Data Liver (Liver): 2.53E-08 | pIC50 (DU-145): 9.95

COc1cc2c(cc1OC(=O)/C=C/c1ccccc1)CCN[C@]21CS[C@@H]2c3c(OC(C)=O)c(C)c4c(c3[C@H](COC1=O)N1C2[C@H]2c3c(cc(C)c(OC)c3O)C[C@@H]([C@@H]1O)N2C)OCO4 (some centres unmarked) [Compound 61]
Toxicity Data Kidney (Kidney): 5.12E-09 | Toxicity Data Myelo (Myelo): 1.69E-08 | pIC50 (P-388): 9.95 | pIC50 (HT-29 [1]): 9.95 | Toxicity Data Skeletal (Skeletal): 1.47E-08 | pIC50 (A-549 [2]): 9.95 | Toxicity Data Heart (Heart): 2.76E-08 | pIC50 (MEL-28): 9.95 | Toxicity Data Liver (Liver): 1.32E-08 | pIC50 (DU-145): 9.95

C=CCOC(=O)Oc1cc2c(cc1OC)[C@@]1(CS[C@@H]3c4c(OC(C)=O)c(C)c5c(c4[C@H](COC1=O)N1C3[C@H]3c4c(cc(C)c(OC)c4O)C[C@@H]([C@@H]1O)N3C)OCO5)NCC2 (some centres unmarked) [Compound 64]
Toxicity Data Kidney (Kidney): 1.77E-08 | Toxicity Data Myelo (Myelo): 1.93E-08 | pIC50 (P-388): 9.93 | pIC50 (HT-29 [1]): 9.23 | Toxicity Data Skeletal (Skeletal): 1.66E-09 | pIC50 (A-549 [2]): 9.23 | Toxicity Data Heart (Heart): 5.50E-08 | pIC50 (MEL-28): 9.23 | Toxicity Data Liver (Liver): 2.57E-08

CCOc1cc2c(cc1OC)[C@@]1(CS[C@@H]3c4c(OC(C)=O)c(C)c5c(c4[C@H](COC1=O)N1C3[C@H]3c4c(cc(C)c(OC)c4O)C[C@@H]([C@@H]1O)N3C)OCO5)NCC2 (some centres unmarked) [Compound 68]
Toxicity Data Kidney (Kidney): 5.10E-09 | Toxicity Data Myelo (Myelo): 1.89E-08 | pIC50 (HT-29 [1]): 9.20 | Toxicity Data Skeletal (Skeletal): 1.27E-08 | pIC50 (A-549 [2]): 9.20 | Toxicity Data Heart (Heart): 1.13E-08 | Toxicity Data Liver (Liver): 1.76E-08

COc1cc2c(cc1OC(=O)[C@H](C)NC(=O)OC(C)(C)C)CCN[C@]21CS[C@@H]2c3c(OC(C)=O)c(C)c4c(c3[C@H](COC1=O)N1C2[C@H]2c3c(cc(C)c(OC)c3O)C[C@@H]([C@@H]1O)N2C)OCO4 (some centres unmarked) [Compound 79]
Toxicity Data Kidney (Kidney): 1.74E-08 | Toxicity Data Myelo (Myelo): 1.35E-08 | pIC50 (HT-29 [1]): 9.97 | Toxicity Data Skeletal (Skeletal): 2.75E-09 | pIC50 (A-549 [2]): 9.97 | Toxicity Data Heart (Heart): 3.46E-08 | Toxicity Data Liver (Liver): 2.28E-08

C=COC(=O)Oc1cc2c(cc1OC)[C@@]1(CS[C@@H]3c4c(OC(C)=O)c(C)c5c(c4[C@H](COC1=O)N1C3[C@H]3c4c(cc(C)c(OC)c4OC(=O)OC=C)C[C@@H]([C@@H]1O)N3C)OCO5)NCC2 (some centres unmarked) [Compound 92]
Toxicity Data Kidney (Kidney): 1.35E-08 | Toxicity Data Myelo (Myelo): 1.92E-08 | Toxicity Data Skeletal (Skeletal): 1.21E-08 | Toxicity Data Heart (Heart): 2.80E-08 | HT-29 TGI (HT-29 [3]): 1.11E-09 | GI50 (HT-29 [3]): 1.11 nM | LC50 (concentration for 50% cell killing) (HT-29 [3]): 55.5 nM | A-549 TGI (A-549 [4]): 7.77E-09 | GI50 (A-549 [4]): 3.33 nM | LC50 (concentration for 50% cell killing) (A-549 [4]): 33.3 nM | Toxicity Data Liver (Liver): 2.30E-08

CCN1CCc2cc(O)c(OC)cc2[C@@]12CS[C@@H]1c3c(OC(C)=O)c(C)c4c(c3[C@H](COC2=O)N2C1[C@H]1c3c(cc(C)c(OC)c3O)C[C@@H]([C@@H]2O)N1C)OCO4 (some centres unmarked) [Compound 94]
Toxicity Data Kidney (Kidney): 3.49E-09 | Toxicity Data Myelo (Myelo): 1.13E-08 | pIC50 (P-388): 9.82 | pIC50 (HT-29 [1]): 9.82 | Toxicity Data Skeletal (Skeletal): 1.44E-09 | pIC50 (A-549 [2]): 9.82 | Toxicity Data Heart (Heart): 6.66E-08 | pIC50 (MEL-28): 9.82 | Toxicity Data Liver (Liver): 1.24E-08

COc1cc2c(cc1O)CCN[C@]21CS[C@@H]2c3c(OC(C)=O)c(C)c4c(c3[C@H](COC1=O)N1C2[C@H]2c3c(cc(C)c(OC)c3OC)C[C@@H]([C@@H]1O)N2C)OCO4 (some centres unmarked) [Compound 98]
Toxicity Data Kidney (Kidney): 1.08E-06 | Toxicity Data Myelo (Myelo): 3.79E-08 | pIC50 (HT-29 [1]): 9.89 | Toxicity Data Skeletal (Skeletal): 1.24E-08 | pIC50 (A-549 [2]): 9.89 | Toxicity Data Heart (Heart): 4.98E-08 | Toxicity Data Liver (Liver): 4.21E-08

C=COC(=O)Oc1cc2c(cc1OC)[C@@]1(CS[C@@H]3c4c(OC(C)=O)c(C)c5c(c4[C@H](COC1=O)N1C3[C@H]3c4c(cc(C)c(OC)c4OC(=O)OC=C)C[C@@H]([C@@H]1O)N3C)OCO5)N(C(=O)OC=C)CC2 (some centres unmarked) [Compound 99]
Toxicity Data Kidney (Kidney): 2.56E-08 | Toxicity Data Myelo (Myelo): 1.45E-07 | Toxicity Data Skeletal (Skeletal): 9.71E-08 | Toxicity Data Heart (Heart): 1.13E-07 | HT-29 TGI (HT-29 [3]): 1.03E-07 | GI50 (HT-29 [3]): 34.3 nM | LC50 (concentration for 50% cell killing) (HT-29 [3]): 10300 nM | A-549 TGI (A-549 [4]): 9.96E-08 | GI50 (A-549 [4]): 43.5 nM | LC50 (concentration for 50% cell killing) (A-549 [4]): 10300 nM | Toxicity Data Liver (Liver): 4.80E-08

CCCC(=O)Oc1c(C)c2c(c3c1[C@H]1SC[C@]4(NCCc5cc(O)c(OC)cc54)C(=O)OC[C@@H]3N3C1[C@H]1c4c(cc(C)c(OC)c4O)C[C@@H]([C@@H]3O)N1C)OCO2 (some centres unmarked) [Compound 163]
Toxicity Data Kidney (Kidney): 6.33E-07 | Toxicity Data Myelo (Myelo): 2.38E-07 | Toxicity Data Skeletal (Skeletal): 2.53E-06 | Toxicity Data Heart (Heart): 4.80E-07 | HT-29 TGI (HT-29 [3]): 1.14E-09 | GI50 (HT-29 [3]): 0.38 nM | LC50 (concentration for 50% cell killing) (HT-29 [3]): 3.8 nM | A-549 TGI (A-549 [4]): 2.53E-09 | GI50 (A-549 [4]): 0.38 nM | LC50 (concentration for 50% cell killing) (A-549 [4]): 8.86 nM | Toxicity Data Liver (Liver): 9.80E-07

C=CCOC(=O)Oc1c(C)c2c(c3c1[C@H]1SC[C@]4(NCCc5cc(O)c(OC)cc54)C(=O)OC[C@@H]3N3C1[C@H]1c4c(cc(C)c(OC)c4O)C[C@@H]([C@@H]3O)N1C)OCO2 (some centres unmarked) [Compound 165]
Toxicity Data Kidney (Kidney): 1.89E-08 | Toxicity Data Myelo (Myelo): 2.87E-08 | Toxicity Data Skeletal (Skeletal): 1.47E-08 | Toxicity Data Heart (Heart): 2.79E-08 | HT-29 TGI (HT-29 [3]): 3.73E-10 | GI50 (HT-29 [3]): 0.249 nM | LC50 (concentration for 50% cell killing) (HT-29 [3]): 0.995 nM | A-549 TGI (A-549 [4]): 3.73E-10 | GI50 (A-549 [4]): 0.124 nM | LC50 (concentration for 50% cell killing) (A-549 [4]): 1.24 nM | Toxicity Data Liver (Liver): 1.68E-08

C=CCOc1c(C)c2c(c3c1[C@H]1SC[C@]4(NCCc5cc(O)c(OC)cc54)C(=O)OC[C@@H]3N3C1[C@H]1c4c(cc(C)c(OC)c4O)C[C@@H]([C@@H]3O)N1C)OCO2 (some centres unmarked) [Compound 183]
Toxicity Data Kidney (Kidney): 6.72E-03 | Toxicity Data Myelo (Myelo): 2.39E-08 | pIC50 (HT-29 [1]): 9.88 | Toxicity Data Skeletal (Skeletal): 2.67E-08 | pIC50 (A-549 [2]): 9.88 | Toxicity Data Heart (Heart): 3.72E-08 | Toxicity Data Liver (Liver): 3.03E-08

CCCCCCCC(=O)Oc1cc2c(cc1OC)[C@@]1(CS[C@@H]3c4c(OC(C)=O)c(C)c5c(c4[C@H](COC1=O)N1C3[C@@H]3N[C@@H](Cc4cc(C)c(OC)c(O)c43)[C@@H]1O)OCO5)NCC2 (some centres unmarked) [Compound 213]
Toxicity Data Kidney (Kidney): 1.48E-08 | Toxicity Data Myelo (Myelo): 2.70E-08 | pIC50 (HT-29 [1]): 9.94 | Toxicity Data Skeletal (Skeletal): 1.72E-07 | pIC50 (A-549 [2]): 9.94 | Toxicity Data Heart (Heart): 1.82E-07 | Toxicity Data Liver (Liver): 3.93E-08
